Test results as given in paper PMC2559975 (Journal of medicinal chemistry, 2008).
pIC50, pKi: −log10 of the molar value. Like-named read-outs stand apart in the source and are kept apart here.

Key:
[1] = tested on: CCRF-CEM human leukemia cell line; assay: In vitro cytotoxic activity; format: cell-based; conditions: for Times less potent than 2 in the CCRF-CEM assay: relative to 2
CCRF-CEM/FPGS^- = format: cell-based, human; conditions: relative to CCRF-CEM
[2] = tested on: CCRF-CEM human leukemia cell line; conditions: read-out: IC50, CCRF-CEM; equi-mixture of C10-diastereomers; cited from earlier work
rhGAR Tfase = target: T1, rhGAR Tfase (Homo sapiens, UniProt P22102); assay: GAR Tfase enzyme inhibition assay; format: biochemical
T1 sequence (P22102 808-1010 limits assumed): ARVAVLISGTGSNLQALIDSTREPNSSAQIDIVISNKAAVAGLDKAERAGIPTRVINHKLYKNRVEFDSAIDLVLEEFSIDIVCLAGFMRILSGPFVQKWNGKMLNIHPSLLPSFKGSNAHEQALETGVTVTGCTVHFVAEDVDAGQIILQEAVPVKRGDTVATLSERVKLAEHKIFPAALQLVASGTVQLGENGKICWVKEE

[3] = Homo sapiens, CCRF-CEM, read-out: IC50 [(-)T, (-)H] CCRF-CEM

**Q.** With 10-hydroxy-DDACTHF [Compound 10R-7] as the compound, how does the pIC50 ([1]; read-out: CCRF-CEM IC50, (+) T, (-) H, Table 2, thymidine added, no hypoxanthine) read?
**A.** 5.24

**Q.** And the pIC50 ([1]; read-out: CCRF-CEM IC50, (-) T, (+) H, Table 2, hypoxanthine added, no thymidine)?
**A.** < 5.00

**Q.** With `Nc1nc(N)c(CCCC(C(=O)C(F)(F)F)c2ccc(C(=O)N[C@@H](CCC(=O)O)C(=O)O)cc2)c(=O)[nH]1` (some centres unmarked) [Compound 2, 10-CF3CO-DDACTHF, reference compound] as the compound, how does the pIC50 [1, 3] read?
**A.** 7.22

**Q.** Which “Loss of activity against the cell line that lacks FPGS” value (CCRF-CEM/FPGS^-) does the source give for `CSC(CCCc1c(N)nc(N)[nH]c1=O)c1ccc(C(=O)N[C@@H](CCC(=O)O)C(=O)O)cc1` (some centres unmarked) [Compound 3, 10-methylthio-DDACTHF] here?
**A.** ca. 100 fold

**Q.** What about the pIC50 [2] of the same compound?
**A.** 7.00

**Q.** For `Nc1nc(N)c(CCCC2(c3ccc(C(=O)N[C@@H](CCC(=O)O)C(=O)O)cc3)SCCCS2)c(=O)[nH]1` [Compound 9, (S)-2-(4-(2-(3-(2,4-Diamino-6-oxo-1,6-dihydropyrimidin-5-yl)propyl)-1,3-dithian-2-yl)benzamido)pentanedioic Acid], which “Activity in the CCRF-CEM cell-based assay (in words)” value [1] is on record?
**A.** no activity

**Q.** With `CS[C@H](CCCc1c(N)nc(N)[nH]c1=O)c1ccc(C(=O)N[C@@H](CCC(=O)O)C(=O)O)cc1` [Compound 10R-3, (S)-2-(4-((R)-4-(2,4-Diamino-6-oxo-1,6-dihydropyrimidin-5-yl)-1-(methylthio)butyl)benzamido)pentanedioic Acid] as the compound, how does the pIC50 [1, 3] read?
**A.** 7.05

**Q.** What about the “Times less potent than 2 in the CCRF-CEM assay” value [1] of the same compound?
**A.** 3-5 times

**Q.** With `CS[C@@H](CCCc1c(N)nc(N)[nH]c1=O)c1ccc(C(=O)N[C@@H](CCC(=O)O)C(=O)O)cc1` [Compound 10S-3, 10-methylthio-DDACTHF] as the compound, how does the “Times less potent than 2 in the CCRF-CEM assay” value [1] read?
**A.** 3-5 times

**Q.** With `Nc1nc(N)c(CCC[C@H](O)c2ccc(C(=O)N[C@@H](CCC(=O)O)C(=O)O)cc2)c(=O)[nH]1` [Compound 10S-7, (S)-2-(4-((S)-4-(2,4-Diamino-6-oxo-1,6-dihydropyrimidin-5-yl)-1-hydroxybutyl)benzamido)pentanedioic Acid] as the compound, how does the pKi (rhGAR Tfase) read?
**A.** 5.92

**Q.** With `CO[C@@H](CCCc1c(N)nc(N)[nH]c1=O)c1ccc(C(=O)N[C@@H](CCC(=O)O)C(=O)O)cc1` [Compound 10S-8, (S)-2-(4-((S)-4-(2,4-Diamino-6-oxo-1,6-dihydropyrimidin-5-yl)-1-methoxybutyl)benzamido)pentanedioic Acid] as the compound, how does the pIC50 [1, 3] read?
**A.** 6.10
